Assay results from US12077503B2, “Substituted cyclic amides and their use as herbicides” (FMC CORPORATION, priority 2015, dated 2024).

Columns and labels:
Format in all cases: in vivo
[1] = system: Kochia (Kochia scoparia); test: Test A preemergence; conditions: Bassia scoparia, pre-emergence, 240 h, preemergence, 0 to 100 scale where 0 is no effect and 100 is complete control, read-out: Kochia plant response rating; for pest or weed control at 125 g/ha: 125 g ai/ha, approx. 10 d; for pest or weed control at 500 g/ha: 500 g ai/ha
Method in brief: (§1)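 Each rating is a visual injury score from 0 to 100 given about 10 d after treatment, judged against untreated controls kept alongside in the greenhouse. In loam soil–sand blend, seeds got a preemergence directed soil spray, while postemergence plants were 2 to 10 cm tall at spraying.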

[2] = system: ragweed (common ragweed, Ambrosia elatior); test: Test A preemergence; conditions: Ambrosia artemisiifolia, pre-emergence, 240 h, preemergence, 0 to 100 scale where 0 is no effect and 100 is complete control, read-out: Ragweed plant response rating; for pest or weed control at 125 g/ha: 125 g ai/ha, approx. 10 d; for pest or weed control at 500 g/ha: 500 g ai/ha
Method in brief: as §1

[3] = system: pigweed (Amaranthus retroflexus); test: Test A preemergence; conditions: Amaranthus retroflexus, pre-emergence, 240 h, preemergence, 0 to 100 scale where 0 is no effect and 100 is complete control, read-out: Pigweed plant response rating; for pest or weed control at 125 g/ha: 125 g ai/ha, approx. 10 d; for pest or weed control at 500 g/ha: 500 g ai/ha
[4] = system: giant foxtail (Setaria faberii); test: Test A preemergence; conditions: Setaria faberi, pre-emergence, 240 h, preemergence, 0 to 100 scale where 0 is no effect and 100 is complete control, read-out: Foxtail, Giant plant response rating; for pest or weed control at 125 g/ha: 125 g ai/ha, approx. 10 d; for pest or weed control at 500 g/ha: 500 g ai/ha
Method in brief: as §1

[5] = system: ryegrass, Italian (Italian ryegrass, Lolium multiflorum); test: Test A preemergence; conditions: Lolium multiflorum, pre-emergence, 240 h, preemergence, 0 to 100 scale where 0 is no effect and 100 is complete control, read-out: Ryegrass, Italian plant response rating; for pest or weed control at 125 g/ha: 125 g ai/ha, approx. 10 d; for pest or weed control at 500 g/ha: 500 g ai/ha
Method in brief: as §1

[6] = system: barnyardgrass (Echinochloa crus-galli); test: Test A preemergence; conditions: Echinochloa crus-galli, pre-emergence, 240 h, preemergence, read-out: Barnyardgrass plant response rating; for pest or weed control at 125 g/ha: 125 g ai/ha, approx. 10 d; for pest or weed control at 500 g/ha: 500 g ai/ha
Method in brief: as §1

[7] = system: Kochia (Kochia scoparia); test: Test A postemergence; conditions: Bassia scoparia, post-emergence, 240 h, postemergence, read-out: Kochia plant response rating; for pest or weed control at 125 g/ha: 125 g ai/ha, visual injury on 0 to 100 scale (0 no effect, 100 complete control), approx. 10 d; for pest or weed control at 500 g/ha: 500 g ai/ha, 0 to 100 scale, 0 is no effect, 100 is complete control
Method in brief: as §1

[8] = system: ragweed (common ragweed, Ambrosia elatior); test: Test A postemergence; conditions: Ambrosia artemisiifolia, post-emergence, 240 h, postemergence, read-out: Ragweed plant response rating; for pest or weed control at 125 g/ha: 125 g ai/ha, visual injury on 0 to 100 scale (0 no effect, 100 complete control), approx. 10 d; for pest or weed control at 500 g/ha: 500 g ai/ha, 0 to 100 scale, 0 is no effect, 100 is complete control
Method in brief: as §1

[9] = system: corn (Zea mays); test: Test A postemergence; conditions: Zea mays, post-emergence, 240 h, postemergence, read-out: Corn plant response rating; for plant injury at 125 g/ha: 125 g ai/ha, visual injury on 0 to 100 scale (0 no effect, 100 complete control), approx. 10 d; for plant injury at 500 g/ha: 500 g ai/ha, 0 to 100 scale, 0 is no effect, 100 is complete control
Method in brief: as §1

[10] = system: pigweed (Amaranthus retroflexus); test: Test A postemergence; conditions: Amaranthus retroflexus, post-emergence, 240 h, postemergence, read-out: Pigweed plant response rating; for pest or weed control at 125 g/ha: 125 g ai/ha, visual injury on 0 to 100 scale (0 no effect, 100 complete control), approx. 10 d; for pest or weed control at 500 g/ha: 500 g ai/ha, 0 to 100 scale, 0 is no effect, 100 is complete control
Method in brief: as §1

[11] = system: wheat (Triticum aestivum); test: Test A postemergence; conditions: Triticum aestivum, post-emergence, 240 h, postemergence, read-out: Wheat plant response rating; for plant injury at 125 g/ha: 125 g ai/ha, visual injury on 0 to 100 scale (0 no effect, 100 complete control), approx. 10 d; for plant injury at 500 g/ha: 500 g ai/ha, 0 to 100 scale, 0 is no effect, 100 is complete control
Method in brief: as §1

[12] = system: blackgrass (Alopecurus myosuroides); test: Test A postemergence; conditions: Alopecurus myosuroides, post-emergence, 240 h, postemergence, read-out: Blackgrass plant response rating; for pest or weed control at 125 g/ha: 125 g ai/ha, visual injury on 0 to 100 scale (0 no effect, 100 complete control), approx. 10 d; for pest or weed control at 500 g/ha: 500 g ai/ha, 0 to 100 scale, 0 is no effect, 100 is complete control
Method in brief: as §1

[13] = system: ryegrass, Italian (Italian ryegrass, Lolium multiflorum); test: Test A postemergence; conditions: Lolium multiflorum, post-emergence, 240 h, postemergence, read-out: Ryegrass, Italian plant response rating; for pest or weed control at 125 g/ha: 125 g ai/ha, visual injury on 0 to 100 scale (0 no effect, 100 complete control), approx. 10 d; for pest or weed control at 500 g/ha: 500 g ai/ha, 0 to 100 scale, 0 is no effect, 100 is complete control
Method in brief: as §1

[14] = system: Galium (catchweed bedstraw, Galium aparine); test: Test A postemergence; conditions: Galium, post-emergence, 240 h, postemergence, read-out: Galium plant response rating; for pest or weed control at 125 g/ha: 125 g ai/ha, visual injury on 0 to 100 scale (0 no effect, 100 complete control), approx. 10 d; for pest or weed control at 500 g/ha: 500 g ai/ha, 0 to 100 scale, 0 is no effect, 100 is complete control
Method in brief: as §1

[15] = system: barnyardgrass (Echinochloa crus-galli); test: Test A postemergence; conditions: Echinochloa crus-galli, post-emergence, 240 h, postemergence, read-out: Barnyardgrass plant response rating; for pest or weed control at 125 g/ha: 125 g ai/ha, visual injury on 0 to 100 scale (0 no effect, 100 complete control), approx. 10 d; for pest or weed control at 500 g/ha: 500 g ai/ha, 0 to 100 scale, 0 is no effect, 100 is complete control
Method in brief: as §1

[16] = 0 to 100 scale where 0 is no effect and 100 is complete control
[17] = visual injury rating about 10 d after treatment, 0 to 100 scale (0 no effect, 100 complete control)

Row | Structure (SMILES) | pest or weed control at 125 g/ha [1] | pest or weed control at 500 g/ha [1] | pest or weed control at 125 g/ha [2] | pest or weed control at 500 g/ha [2] | pest or weed control at 125 g/ha [3] | pest or weed control at 500 g/ha [3] | pest or weed control at 125 g/ha [4] | pest or weed control at 500 g/ha [4] | pest or weed control at 125 g/ha [5] | pest or weed control at 500 g/ha [5] | pest or weed control at 125 g/ha [6, 16] | pest or weed control at 125 g/ha [7] | pest or weed control at 500 g/ha [7] | pest or weed control at 125 g/ha [8] | pest or weed control at 500 g/ha [8] | plant injury at 125 g/ha [9] | plant injury at 500 g/ha [9] | pest or weed control at 125 g/ha [10] | pest or weed control at 500 g/ha [10] | plant injury at 125 g/ha [11] | also measured
1 | Cc1cc([C@H]2CN(C)C(=O)[C@@H]2C(=O)Nc2ccccc2S(C)(=O)=O)ccc1Br [Compound 1102] | 20% | 70% | 0% | 50% | 20% | 50% | 90% | 90% | 30% | 60% | 90% | 0% | 0% | 0% | 20% | 20% | 60% | 0% | 0% | 20% | pest or weed control at 500 g/ha [6, 17]: 90%; plant injury at 500 g/ha [11]: 50%; pest or weed control at 125 g/ha [12]: 20%; pest or weed control at 500 g/ha [12]: 50%; pest or weed control at 125 g/ha [13]: 0%; pest or weed control at 500 g/ha [13]: 30%; pest or weed control at 125 g/ha [14]: 0%; pest or weed control at 500 g/ha [14]: 30%; pest or weed control at 125 g/ha [15]: 80%; pest or weed control at 500 g/ha [15]: 80%
2 | CN1C[C@H](c2cscn2)[C@@H](C(=O)Nc2ccccc2F)C1=O [Compound 1112] | 0% | 0% | 0% | 0% | 0% | 0% | 0% | 0% | 0% | 0% | 0% | 0% | 0% | 0% | 0% | 0% | 0% | 0% | 0% | 0% | pest or weed control at 500 g/ha [6, 17]: 0%; plant injury at 500 g/ha [11]: 0%; pest or weed control at 125 g/ha [12]: 0%; pest or weed control at 500 g/ha [12]: 0%; pest or weed control at 125 g/ha [13]: 0%; pest or weed control at 500 g/ha [13]: 0%; pest or weed control at 125 g/ha [14]: 0%; pest or weed control at 500 g/ha [14]: 0%; pest or weed control at 125 g/ha [15]: 0%; pest or weed control at 500 g/ha [15]: 0%
3 | CN1C[C@H](c2cc(C(F)F)cs2)[C@@H](C(=O)Nc2ccccc2F)C1=O [Compound 1120] | 40% | 70% | 40% | 50% | 0% | 50% | 90% | 100% | 20% | 40% | 90% | 20% | 70% | 0% | 50% | 0% | 60% | 0% | 20% | 20% | pest or weed control at 500 g/ha [6, 17]: 100%; plant injury at 500 g/ha [11]: 50%; pest or weed control at 125 g/ha [12]: 30%; pest or weed control at 500 g/ha [12]: 50%; pest or weed control at 125 g/ha [13]: 20%; pest or weed control at 500 g/ha [13]: 40%; pest or weed control at 125 g/ha [14]: 40%; pest or weed control at 500 g/ha [14]: 60%; pest or weed control at 125 g/ha [15]: 90%; pest or weed control at 500 g/ha [15]: 90%
4 | CSc1ccccc1NC(=O)[C@H]1C(=O)NC[C@@H]1c1cc(F)c(F)c(F)c1 [Compound 1124] | 70% | 90% | 0% | 60% | 50% | 70% | 90% | 90% | 0% | 30% | 60% | 60% | 70% | 0% | 50% | 0% | 0% | 0% | 60% | 0% | pest or weed control at 500 g/ha [6, 16]: 90%; plant injury at 500 g/ha [11]: 0%; pest or weed control at 125 g/ha [12]: 0%; pest or weed control at 500 g/ha [12]: 0%; pest or weed control at 125 g/ha [13]: 0%; pest or weed control at 500 g/ha [13]: 0%; pest or weed control at 125 g/ha [14]: 50%; pest or weed control at 500 g/ha [14]: 60%; pest or weed control at 125 g/ha [15]: 60%; pest or weed control at 500 g/ha [15]: 90%
